Test results published in the NIST ThermoML archive (doi:10.1021/je030167i).
Numbers after ± are expanded uncertainties.

How the values were obtained:
[1] = 101.3 kPa, Liquid
[2] = xn = mol fraction of the nth substance listed; details: 101.3 kPa, Liquid

CCCCCl [1-chlorobutane]
[1]
Details	kinematic viscosity [m2/s]	mass density [kg/m3]
298.15 K	4.78e-07 ± 1.7e-08	880.62 ± 0.3
313.15 K	4.21e-07 ± 1.6e-08	863.86 ± 0.31

CC(C)CCl [1-chloro-2-methylpropane]
[1]
Details	kinematic viscosity [m2/s]	mass density [kg/m3]
298.15 K	4.92e-07 ± 1.8e-08	870.93 ± 0.49
313.15 K	4.29e-07 ± 1.6e-08	853.51 ± 0.49

CC(C)CCl [1-chloro-2-methylpropane] + CC1CCCO1
[2]
Details	kinematic viscosity, 298.15 K [m2/s]	kinematic viscosity, 313.15 K [m2/s]	mass density, 298.15 K [kg/m3]	mass density, 313.15 K [kg/m3]
x1 = 0.0484	5.56e-07 ± 2e-08	4.88e-07 ± 1.8e-08	850.43 ± 0.49	834.97 ± 0.49
x1 = 0.0999	5.52e-07 ± 2e-08	4.85e-07 ± 1.8e-08	852.07 ± 0.49	836.22 ± 0.49
x1 = 0.1962	5.44e-07 ± 1.9e-08	4.78e-07 ± 1.8e-08	854.44 ± 0.49	838.53 ± 0.49
x1 = 0.3105	5.35e-07 ± 1.9e-08	4.7e-07 ± 1.7e-08	857.3 ± 0.49	841.23 ± 0.49
x1 = 0.4006	5.29e-07 ± 1.9e-08	4.65e-07 ± 1.7e-08	859.25 ± 0.49	843.09 ± 0.49
x1 = 0.4775	5.23e-07 ± 1.9e-08	4.6e-07 ± 1.7e-08	860.99 ± 0.49	844.5 ± 0.49
x1 = 0.6006	5.15e-07 ± 1.9e-08	4.52e-07 ± 1.7e-08	863.58 ± 0.49	846.94 ± 0.49
x1 = 0.7031	5.08e-07 ± 1.8e-08	4.46e-07 ± 1.7e-08	865.6 ± 0.49	848.88 ± 0.49
x1 = 0.8026	5.03e-07 ± 1.8e-08	4.4e-07 ± 1.6e-08	867.49 ± 0.49	850.49 ± 0.49
x1 = 0.9059	4.97e-07 ± 1.8e-08	4.34e-07 ± 1.6e-08	869.22 ± 0.49	852.11 ± 0.49
x1 = 0.9506	4.95e-07 ± 1.8e-08	4.32e-07 ± 1.6e-08	870.2 ± 0.49	852.87 ± 0.49
x1 = 1	4.92e-07 ± 1.8e-08	4.29e-07 ± 1.6e-08	870.93 ± 0.49	853.51 ± 0.49

CC1CCCO1 (stereo not drawn) [2-methyltetrahydrofuran] + CCC(C)Cl
[2], x2 = 0
Details	kinematic viscosity [m2/s]	mass density [kg/m3]
298.15 K	5.59e-07 ± 2e-08	849.28 ± 0.49
313.15 K	4.92e-07 ± 1.8e-08	834.01 ± 0.49

CCCCO [butan-1-ol] + CC1CCCO1
[2], x1 = 1
Details	kinematic viscosity [m2/s]	mass density [kg/m3]
298.15 K	3.19e-06 ± 9.3e-08	805.56 ± 0.29
313.15 K	2.22e-06 ± 6.7e-08	794.19 ± 0.3

CC1CCCO1 (stereo not drawn) [2-methyltetrahydrofuran] + CCC(C)O
[2]
Details	kinematic viscosity, 298.15 K [m2/s]	kinematic viscosity, 313.15 K [m2/s]	mass density, 298.15 K [kg/m3]	mass density, 313.15 K [kg/m3]
x2 = 0	5.59e-07 ± 2e-08	4.92e-07 ± 1.8e-08	849.28 ± 0.49	834.01 ± 0.49
x2 = 0.0437	5.66e-07 ± 2e-08	4.91e-07 ± 1.8e-08	847.1 ± 0.49	831.74 ± 0.49
x2 = 0.0915	6.07e-07 ± 2.1e-08	5.06e-07 ± 1.8e-08	844.81 ± 0.49	829.48 ± 0.49
x2 = 0.1968	6.45e-07 ± 2.2e-08	5.54e-07 ± 2e-08	839.74 ± 0.49	824.64 ± 0.49
x2 = 0.3024	7.16e-07 ± 2.4e-08	6.04e-07 ± 2.1e-08	834.82 ± 0.49	820.02 ± 0.49
x2 = 0.3993	8.06e-07 ± 2.7e-08	6.7e-07 ± 2.3e-08	830.17 ± 0.49	815.81 ± 0.49
x2 = 0.5051	9.5e-07 ± 3.1e-08	7.71e-07 ± 2.6e-08	825.31 ± 0.49	811.2 ± 0.49
x2 = 0.6018	1.11e-06 ± 3.6e-08	8.78e-07 ± 2.9e-08	820.77 ± 0.49	806.88 ± 0.49
x2 = 0.6999	1.39e-06 ± 4.4e-08	1.05e-06 ± 3.4e-08	816.27 ± 0.49	802.66 ± 0.49
x2 = 0.8077	1.86e-06 ± 5.7e-08	1.34e-06 ± 4.2e-08	811.31 ± 0.49	797.97 ± 0.49
x2 = 0.8708	2.26e-06 ± 6.8e-08	1.57e-06 ± 4.9e-08	808.35 ± 0.49	795.28 ± 0.5
x2 = 0.9361	2.9e-06 ± 8.6e-08	1.86e-06 ± 5.8e-08	805.28 ± 0.49	792.38 ± 0.5

CC(C)CO [2-methyl-1-propanol]
[1]
Details	kinematic viscosity [m2/s]	mass density [kg/m3]
298.15 K	4.25e-06 ± 1.2e-07	797.71 ± 0.35
313.15 K	2.74e-06 ± 8.2e-08	785.89 ± 0.36

CC(C)(C)O [2-methylpropan-2-ol] + CC1CCCO1
[2], x1 = 1
Details	kinematic viscosity [m2/s]	mass density [kg/m3]
298.15 K	5.59e-06 ± 1.6e-07	780.67 ± 0.36
313.15 K	2.74e-06 ± 8.8e-08	765.33 ± 0.37

CCCCCl [1-chlorobutane] + CC1CCCO1
[2], x1 = 1
Details	kinematic viscosity [m2/s]	mass density [kg/m3]
298.15 K	4.78e-07 ± 1.7e-08	880.62 ± 0.3
313.15 K	4.21e-07 ± 1.6e-08	863.86 ± 0.31

CC1CCCO1 (stereo not drawn) [2-methyltetrahydrofuran] + CC(C)(C)O
[2]
Details	kinematic viscosity, 298.15 K [m2/s]	kinematic viscosity, 313.15 K [m2/s]	mass density, 298.15 K [kg/m3]	mass density, 313.15 K [kg/m3]
x2 = 0	5.59e-07 ± 2e-08	4.92e-07 ± 1.8e-08	849.28 ± 0.49	834.01 ± 0.49
x2 = 0.038	5.81e-07 ± 2e-08	5.04e-07 ± 1.8e-08	846.42 ± 0.48	831.02 ± 0.48
x2 = 0.0906	6.07e-07 ± 2.1e-08	5.27e-07 ± 1.9e-08	842.39 ± 0.47	826.98 ± 0.48
x2 = 0.191	6.72e-07 ± 2.3e-08	5.73e-07 ± 2e-08	835.27 ± 0.46	819.77 ± 0.46
x2 = 0.3192	7.79e-07 ± 2.6e-08	6.49e-07 ± 2.2e-08	826.46 ± 0.44	811.22 ± 0.44
x2 = 0.3935	8.66e-07 ± 2.8e-08	7.06e-07 ± 2.4e-08	821.4 ± 0.43	806.46 ± 0.43
x2 = 0.4981	1.03e-06 ± 3.3e-08	8.15e-07 ± 2.7e-08	814.49 ± 0.41	799.58 ± 0.42
x2 = 0.5918	1.25e-06 ± 3.9e-08	9.49e-07 ± 3.1e-08	808.4 ± 0.4	793.51 ± 0.41
x2 = 0.6972	1.67e-06 ± 5.1e-08	1.17e-06 ± 3.7e-08	801.38 ± 0.39	786.72 ± 0.4
x2 = 0.7952	2.2e-06 ± 6.6e-08	1.47e-06 ± 4.6e-08	795.17 ± 0.38	780.27 ± 0.39
x2 = 0.8989	3.34e-06 ± 9.8e-08	1.97e-06 ± 6.1e-08	788.08 ± 0.37	773.14 ± 0.38
x2 = 0.9532	4.37e-06 ± 1.3e-07	2.35e-06 ± 7.4e-08	784.19 ± 0.37	769.08 ± 0.38

CCCCO [butan-1-ol]
[1]
Details	kinematic viscosity [m2/s]	mass density [kg/m3]
298.15 K	3.19e-06 ± 9.3e-08	805.56 ± 0.29
313.15 K	2.22e-06 ± 6.7e-08	794.19 ± 0.3

CC1CCCO1 (stereo not drawn) [2-methyltetrahydrofuran]
[1]
Details	kinematic viscosity [m2/s]	mass density [kg/m3]
298.15 K	5.59e-07 ± 2e-08	849.28 ± 0.49
313.15 K	4.92e-07 ± 1.8e-08	834.01 ± 0.49

CC1CCCO1 (stereo not drawn) [2-methyltetrahydrofuran] + CCCCO
[2]
Details	kinematic viscosity, 298.15 K [m2/s]	kinematic viscosity, 313.15 K [m2/s]	mass density, 298.15 K [kg/m3]	mass density, 313.15 K [kg/m3]
x2 = 0	5.59e-07 ± 2e-08	4.92e-07 ± 1.8e-08	849.28 ± 0.49	834.01 ± 0.49
x2 = 0.0488	5.91e-07 ± 2.1e-08	5.11e-07 ± 1.9e-08	847.62 ± 0.48	832.35 ± 0.48
x2 = 0.1039	6.22e-07 ± 2.2e-08	5.35e-07 ± 1.9e-08	845.56 ± 0.46	830.5 ± 0.46
x2 = 0.205	6.93e-07 ± 2.3e-08	5.88e-07 ± 2.1e-08	841.78 ± 0.43	827.07 ± 0.43
x2 = 0.3006	7.7e-07 ± 2.6e-08	6.52e-07 ± 2.2e-08	838.03 ± 0.41	823.64 ± 0.41
x2 = 0.4051	8.81e-07 ± 2.9e-08	7.34e-07 ± 2.5e-08	833.86 ± 0.38	820 ± 0.39
x2 = 0.5099	1.05e-06 ± 3.4e-08	8.41e-07 ± 2.8e-08	829.37 ± 0.36	815.98 ± 0.36
x2 = 0.6036	1.21e-06 ± 3.8e-08	9.69e-07 ± 3.1e-08	825.28 ± 0.34	812.07 ± 0.35
x2 = 0.7034	1.47e-06 ± 4.5e-08	1.16e-06 ± 3.6e-08	820.68 ± 0.32	807.96 ± 0.33
x2 = 0.8042	1.84e-06 ± 5.6e-08	1.39e-06 ± 4.3e-08	815.8 ± 0.31	803.45 ± 0.32
x2 = 0.906	2.4e-06 ± 7.1e-08	1.76e-06 ± 5.3e-08	810.56 ± 0.3	798.76 ± 0.31
x2 = 0.9582	2.8e-06 ± 8.2e-08	1.99e-06 ± 6e-08	807.81 ± 0.29	796.23 ± 0.3
